Converted amounts (≈) assume the structure as drawn. One block for each molecule: values may come before it. The source made the active and inactive calls. The rule behind the calls is not given here.
Assays:
[1] = system: HL-60; assay: Antiproliferative activity against human HL60 cells after 72 hrs by MTT assay; format: functional, cell-based; settings: HL-60, 72 h
[2] = system: Mus musculus; assay: Toxicity in human HCT116 cells xenografted in mouse assessed as chage in body weight at 5 mg/kg, ip for every 4 days 4 doses (Rbv = -5.7%); format: organism-based, HCT-116; design: dose 5 mg/kg, route intraperitoneal; settings: in vivo, 96 h
[3] = system: HCT-116; assay: Antitumor activity against human HCT116 cells xenografted in mouse assessed as tumor growth inhibition at 5 mg/kg, ip for every 4 days 4 doses; format: functional; design: scale not given: the % may be the effect or the level left; settings: route intraperitoneal
[4] = system: HCT-116; assay: Antitumor activity against human HCT116 cells xenografted in mouse assessed as mouse survival at 5 mg/kg, ip for every 4 days 4 doses; format: functional, organism-based; design: dose 5 mg/kg
[5] = system: Mus musculus; assay: Toxicity in human CX-1 cells xenografted in mouse assessed as chage in body weight at 5 mg/kg, ip for every 4 days 4 doses (Rbv = 24.5%); format: organism-based; design: dose 5 mg/kg, route intraperitoneal; settings: in vivo, 96 h
[6] = system: Mus musculus; assay: Toxicity in human CX-1 cells xenografted in mouse assessed as chage in body weight at 10 mg/kg, ip for every 4 days 4 doses (Rbv = 24.5%); format: organism-based; design: dose 10 mg/kg, route intraperitoneal; settings: in vivo, 96 h
[7] = system: CX-1; assay: Antitumor activity against human CX-1 cells xenografted in mouse assessed as tumor growth inhibition at 5 mg/kg, ip for every 4 days 4 doses; format: functional; design: scale not given: the % may be the effect or the level left; settings: route intraperitoneal
[8] = system: CX-1; assay: Antitumor activity against human CX-1 cells xenografted in mouse assessed as tumor growth inhibition at 10 mg/kg, ip for every 4 days 4 doses; format: functional; design: scale not given: the % may be the effect or the level left; settings: route intraperitoneal
[9] = system: CX-1; assay: Antitumor activity against human CX-1 cells xenografted in mouse assessed as mouse survival at 5 mg/kg, ip for every 4 days 4 doses; format: functional, organism-based; design: dose 5 mg/kg
[10] = Metabolic stability in dog liver microsomes assessed as compound remaining at 5 uM after 1 hr; format: ADME, Canis lupus familiaris, Microsome; settings: read-out: Stability
[11] = Aqueous solubility of the compound in deionized water; format: physicochemical
[12] = Metabolic stability in human liver microsomes assessed as compound remaining at 5 uM after 1 hr; format: ADME, Microsome; settings: read-out: Stability
[13] = Half life in Sprague-Dawley rat at 10 mg/kg, iv; format: ADME, organism-based; design: dose 10 mg/kg, route intravenous; settings: in vivo
[14] = system: MDA-MB-231; assay: Antiproliferative activity against P-gp expressing multidrug-resistant human MDA-MB-231 cells after 72 hrs by MTT assay; format: functional, cell-based; settings: MDA-MB-231, 72 h
[15] = system: CX-1; assay: Antitumor activity against human CX-1 cells xenografted in mouse assessed as mouse survival at 10 mg/kg, ip for every 4 days 4 doses; format: functional, organism-based; design: dose 10 mg/kg
[16] = system: Mus musculus; assay: Toxicity in human HCT116 cells xenografted in mouse assessed as chage in body weight at 10 mg/kg, ip for every 4 days 4 doses (Rbv = -5.7%); format: organism-based, HCT-116; design: dose 10 mg/kg, route intraperitoneal; settings: in vivo, 96 h
[17] = system: HCT-116; assay: Antitumor activity against human HCT116 cells xenografted in mouse assessed as tumor growth inhibition at 10 mg/kg, ip for every 4 days 4 doses; format: functional; design: scale not given: the % may be the effect or the level left; settings: route intraperitoneal
[18] = system: HCT-116; assay: Antitumor activity against human HCT116 cells xenografted in mouse assessed as mouse survival at 10 mg/kg, ip for every 4 days 4 doses; format: functional, organism-based; design: dose 10 mg/kg

IC50 [1]: 13 nM
Structure (SMILES): COc1cc(C(=O)c2ccc(-c3csc(NC(=O)[C@H](C)N)n3)cc2-n2cncn2)cc(OC)c1OC
Activity [2]: -1.7% | Activity [3]: 62% | Activity [4]: Active

IC50 [1]: 81 nM
Structure (SMILES): COc1cc(C(=O)c2ccc(-c3csc(NC(=O)[C@@H](N)CO)n3)cc2-n2cncn2)cc(OC)c1OC

IC50 [1]: 27 nM
Structure (SMILES): COc1cc(C(=O)c2ccc(-c3csc(NC(=O)CN)n3)cc2-n2cncn2)cc(OC)c1OC
Activity [5]: 22.2% | Activity [6]: 21% | Activity [7]: 40% | Activity [8]: 44% | Activity [9]: Active

Structure (SMILES): COc1cc(C(=O)c2ccc(-c3csc(N)n3)cc2-n2cncn2)cc(OC)c1OC
remaining at 1 h, 5 µM [10]: 60% | solubility [11]: < 100 µg/mL | remaining at 1 h, 5 µM [12]: 60% | half-life [13]: 1.65 min | IC50 [14]: 9.8 nM

IC50 [1]: 86 nM
Structure (SMILES): COc1cc(C(=O)c2ccc(-c3csc(NC(=O)[C@@H](N)CC4CCCCC4)n3)cc2-n2cncn2)cc(OC)c1OC

IC50 [1]: 920 nM
Structure (SMILES): COc1cc(C(=O)c2ccc(-c3csc(NC(=O)[C@H](N)Cc4ccc(Cl)cc4)n3)cc2-n2cncn2)cc(OC)c1OC

IC50 [1]: > 2000 nM
Structure (SMILES): COc1cc(C(=O)c2ccc(-c3csc(NC(=O)[C@H](N)Cc4ccc(C(F)(F)F)cc4)n3)cc2-n2cncn2)cc(OC)c1OC

IC50 [1]: 76 nM
Structure (SMILES): COc1cc(C(=O)c2ccc(-c3csc(NC(=O)[C@@H](N)CC(C)C)n3)cc2-n2cncn2)cc(OC)c1OC

remaining at 1 h, 5 µM [10]: 10% | IC50 [1]: 110 nM | solubility [11]: 930 µg/mL (≈ 1730 µM) | remaining at 1 h, 5 µM [12]: 15% | half-life [13]: 0.41 min
Structure (SMILES): COc1cc(C(=O)c2ccc(-c3csc(NC(=O)[C@@H](N)C(C)C)n3)cc2-n2cncn2)cc(OC)c1OC
Activity [5]: 25.7% | Activity [6]: 14.7% | Activity [7]: 28% | Activity [8]: 64% | Activity [9]: Active | Activity [15]: Active | Activity [16]: 5.1% | Activity [17]: 88% | Activity [18]: Active

IC50 [1]: 280 nM
Structure (SMILES): COc1cc(C(=O)c2ccc(-c3csc(NC(=O)[C@H](N)c4ccccc4)n3)cc2-n2cncn2)cc(OC)c1OC

IC50 [1]: 98 nM
Structure (SMILES): COc1cc(C(=O)c2ccc(-c3csc(NC(=O)[C@@H]4CCCN4)n3)cc2-n2cncn2)cc(OC)c1OC

Structure (SMILES): COc1ccc(/C=C\c2cc(OC)c(OC)c(OC)c2)cc1N
IC50 [14]: 45 nM

IC50 [1]: 5 nM
Structure (SMILES): COc1cc(C(=O)c2ccc(-c3csc(NC(=O)C(C)(C)N)n3)cc2-n2cncn2)cc(OC)c1OC
Activity [5]: 24.8% | Activity [6]: 26.7% | Activity [7]: 23% | Activity [8]: 20% | Activity [9]: Active | Activity [15]: Active

IC50 [1]: 89 nM
Structure (SMILES): COc1cc(C(=O)c2ccc(-c3csc(NC(=O)[C@@H](N)Cc4ccccc4)n3)cc2-n2cncn2)cc(OC)c1OC
Activity [5]: 28.9% | Activity [6]: 24.5% | Activity [7]: 21% | Activity [8]: 43% | Activity [9]: Active | Activity [15]: Active

IC50 [1]: 740 nM
Structure (SMILES): COc1cc(C(=O)c2ccc(-c3csc(NC(=O)[C@H](N)Cc4ccc(F)cc4)n3)cc2-n2cncn2)cc(OC)c1OC
